Measurements as given in paper PMC8565515, “Dasabuvir Inhibits Human Norovirus Infection in Human Intestinal Enteroids” (mSphere, 2021).
Structures can show the parent of a compound that is named as a salt. Where two headings read alike, the source gives them in different places.

Legend:
GII.4 HuNoV = GII.4 HuNoV infection of HIE monolayers, viral genome equivalents by RT-qPCR; assay type: cell-based, human norovirus; conditions: compound 10 μM, n = 1, J2 HIE monolayers, GII.4 HuNoV, 24 hpi, normalized to DMSO control; for activity at 10 µM: Norovirus, 24 h, read-out: (%) HuNoV GEs

Row | Structure (SMILES) | activity at 10 µM (GII.4 HuNoV) [%] | (%) Cytotoxicity (J2 HIE monolayers; human, 24 h, 10 μM) [%] | (%) HuNoV GEs (GII.4 HuNoV) [%] | (%) Cytotoxicity (J2 HIE monolayers) [%]
1 | O=c1[nH]c(=O)n([C@H]2C[C@H](O)[C@@H](CO)O2)cc1I [Dendrid] | 67.3 | -0.36 |  | 
2 | CN(C)CC[C@@H](c1ccc(Cl)cc1)c1ccccn1 [Dexchlorpheniramine Maleate] | 63.6 | -3.40 |  | 
3 | CC(=O)OCC(=O)[C@@]1(O)CC[C@H]2[C@@H]3CCC4=CC(=O)C=C[C@]4(C)[C@@]3(Cl)[C@@H](Cl)C[C@@]21C [Dichlorisone Acetate] | 59.1 | -1.58 |  | 
4 | O=c1[nH]cnc2c1ncn2[C@H]1CC[C@@H](CO)O1 [Didanosine] | 52.8 | -0.0652 |  | 
5 | Clc1ccc(COC(Cn2ccnc2)c2ccc(Cl)cc2Cl)cc1 (stereo not drawn) [Econazole] | 95.8 | 7.35 |  | 
6 | O=C1Nc2ccc(Cl)cc2[C@@](C#CC2CC2)(C(F)(F)F)O1 [Efavirenz] | 135 | 1.69 |  | 
7 | Nc1nc(=O)n([C@@H]2CS[C@H](CO)O2)cc1F [Emtricitabine] | 55.5 | 2.80 |  | 
8 | CCn1cc(C(=O)O)c(=O)c2cc(F)c(N3CCNCC3)nc21 [Enoxacin] | 12.5 | 0.62 |  | 
9 | C=C1[C@H](CO)[C@@H](O)C[C@@H]1n1cnc2c(=O)[nH]c(N)nc21 [Entecavir hydrate] | 23.6 | -1.04 |  | 
10 | CC[C@@H](CO)NCCN[C@@H](CC)CO [Ethambutol dihydrochloride] | 100 | 0.23 |  | 
11 | CC(=O)OCC(CCn1cnc2cnc(N)nc21)COC(C)=O [Famciclovir] | 27.3 | 0.72 |  | 
12 | O=c1[nH]c(=O)n([C@H]2C[C@H](O)[C@@H](CO)O2)cc1F [Floxuridine] | 12.6 | 0.65 |  | 
13 | O=c1[nH]cc(F)c(=O)[nH]1 [Fluorouracil] | 27.4 | -0.47 |  | 
14 | O=C(O)P(=O)(O)O [Foscarnet sodium] | 88.5 | 1.07 |  | 
15 | COc1cnc(-n2cnc(C)n2)c2c1c(C(=O)C(=O)N1CCN(C(=O)c3ccccc3)CC1)cn2COP(=O)(O)O [Fostemsavir] | 87.3 | -2.34 |  | 
16 | CCOC(=O)c1cccc(NC(=O)CCn2nc(C)c(S(=O)(=O)N3CCCCC3)c2C)c1 [G402-0849] |  |  | 158.24 | 1.12
17 | Nc1nc(O)c2ncn(COC(CO)CO)c2n1 [Ganciclovir] | 117 | 3.59 |  | 
18 | COC1=C2C[C@@H](C)C[C@H](OC)[C@H](O)[C@@H](C)/C=C(\C)[C@H](OC(N)=O)[C@@H](OC)/C=C\C=C(/C)C(=O)NC(=CC1=O)C2=O [Geldanamycin] | 18.6 | 67.53 |  | 
19 | O[C@H]1[C@H](O)[C@@H](O)[C@H](O)[C@@H](O)[C@H]1O [Inositol] | 44.9 | 2.88 |  | 
20 | CC(=O)N(CC(O)CO)c1c(I)c(C(=O)NCC(O)CO)c(I)c(C(=O)NCC(O)CO)c1I (stereo not drawn) [Iohexol] | 55.3 | 1.11 |  | 
21 | O=C(/C=C/c1ccc(O)cc1)c1ccc(O)cc1O [Isoliquiritigenin] | 172 | 0.86 |  | 
22 | Nc1ccn([C@@H]2CS[C@H](CO)O2)c(=O)n1 [Lamivudine] | 118 | 0.86 |  | 
23 | CC1(C)O[C@H]2CC(=O)OC[C@]23[C@H]2CC[C@@]4(C)[C@H](c5ccoc5)OC(=O)[C@H]5O[C@]54[C@]2(C)C(=O)C[C@@H]13 [Limonin] | 59.9 | 0.73 |  | 
24 | Cc1cccc(C)c1OCC(=O)N[C@@H](Cc1ccccc1)[C@@H](O)C[C@H](Cc1ccccc1)NC(=O)[C@H](C(C)C)N1CCCNC1=O [Lopinavir] | 102 | 9.07 |  | 
25 | COc1cc(NC(=O)Nc2cccc(CNC(=O)O[C@H]3CCOC3)c2)ccc1-c1cnco1 [Merimepodib] | 17 | 0.74 |  | 
26 | Clc1ccc(COC(Cn2ccnc2)c2ccc(Cl)cc2Cl)c(Cl)c1 (stereo not drawn) [Miconazole] | 76.8 | 25.21 |  | 

Row | Structure (SMILES) | activity at 10 µM (GII.4 HuNoV) [%] | (%) Cytotoxicity (J2 HIE monolayers; human, 24 h, 10 μM) [%] | (%) HuNoV GEs (GII.4 HuNoV) [%] | (%) Cytotoxicity (J2 HIE monolayers) [%]
27 | Cc1c(O)cccc1C(=O)N[C@@H](CSc1ccccc1)[C@H](O)CN1C[C@H]2CCCC[C@H]2C[C@H]1C(=O)NC(C)(C)C [Nelfinavir Mesylate] | 39.7 | 4.06 |  | 
28 | CC(=O)Oc1ccccc1C(=O)Nc1ncc([N+](=O)[O-])s1 [Nitazoxanide] | 44.5 | 4.63 |  | 
29 | O=C(O)c1cc(=O)[nH]c(=O)[nH]1 [Orotic acid] | 52.6 | 0.45 |  | 
30 | CN(C(=O)CN(CCO)CC(=O)N(C)C(C)(C)Cc1ccccc1)C(C)(C)Cc1ccccc1 [Oxethazaine] | 29.4 | 1.91 |  | 
31 | CN(C)[C@@H]1C(O)=C(C(N)=O)C(=O)[C@@]2(O)C(O)=C3C(=O)c4c(O)cccc4[C@@](C)(O)[C@H]3[C@H](O)[C@@H]12 [Oxytetracycline] | 46.2 | 3.05 |  | 
32 | Nc1nc2c(ncn2CCC(CO)CO)c(=O)[nH]1 [Penciclovir] | 22.1 | 2.02 |  | 
33 | O=C(O)c1ccccc1C(=O)Nc1ccc(S(=O)(=O)Nc2nccs2)cc1 [Phthalylsulfathiazole] | 44 | 2.05 |  | 
34 | CCOC(=O)c1ccc(OCCC2CCN(c3ccc(C)nn3)CC2)cc1 [Pirodavir] | 50.5 | -3.64 |  | 
35 | CCOCc1nc2c(N)nc3ccccc3c2n1CC(C)(C)O [Resiquimod] | 76.7 | 2.61 |  | 
36 | Cc1nc(Nc2ccc(F)cc2)nc(N2CCc3ccccc3C2C)c1C (stereo not drawn) [Revaprazan hydrochloride] | 214 | 0.20 |  | 
37 | CO[C@H]1/C=C/O[C@@]2(C)Oc3c(C)c(O)c4c(O)c(c(/C=N/N5CCN(C)CC5)c(O)c4c3C2=O)NC(=O)/C(C)=C\C=C\[C@H](C)[C@H](O)[C@@H](C)[C@@H](O)[C@@H](C)[C@H](OC(C)=O)[C@@H]1C [Rifampicin] | 60.2 | 2.64 |  | 
38 | CC(C)c1nc(CN(C)C(=O)N[C@H](C(=O)N[C@@H](Cc2ccccc2)C[C@H](O)[C@H](Cc2ccccc2)NC(=O)OCc2cncs2)C(C)C)cs1 [Ritonavir] | 52.7 | 1.11 |  | 
39 | Cc1cc(F)c(C(=O)Nc2cccc(-c3nncn3C(C)C)n2)cc1-n1cnc(C2CC2)c1 [Selonsertib] | 48.5 | -2.58 |  | 
40 | NCCCNCCCCNCCCN [Spermine] | 116 | 2.77 |  | 
41 | Cc1cn([C@H]2C=C[C@@H](CO)O2)c(=O)[nH]c1=O [Stavudine] | 124 | 2.15 |  | 
42 | COc1ncnc(NS(=O)(=O)c2ccc(N)cc2)c1OC [Sulfadoxine] | 50 | 2.36 |  | 
43 | CCC[C@H](NC(=O)[C@@H]1[C@H]2CCC[C@H]2CN1C(=O)[C@@H](NC(=O)[C@@H](NC(=O)c1cnccn1)C1CCCCC1)C(C)(C)C)C(=O)C(=O)NC1CC1 [Telaprevir] | 53.2 | 0.86 |  | 
44 | Cc1cn([C@@H]2C[C@@H](O)[C@H](CO)O2)c(=O)[nH]c1=O [Telbivudine] | 70.2 | -0.33 |  | 
45 | C[C@H](Cn1cnc2c(N)ncnc21)OCP(=O)(O)O [Tenofovir] | 56.5 | 0.98 |  | 
46 | CCS(=O)(=O)CCn1c([N+](=O)[O-])cnc1C [Tinidazole] | 41 | -0.09 |  | 
47 | O=c1[nH]c(=O)n([C@H]2C[C@H](O)[C@@H](CO)O2)cc1C(F)(F)F [Trifluridine] | 77.1 | 0.46 |  | 
48 | Clc1ccc(C(Cn2ccnc2)OCc2ccsc2Cl)c(Cl)c1 (stereo not drawn) [Vagistat] | 28.3 | 3.16 |  | 
49 | CC(C)[C@H](N)C(=O)OCCOCn1cnc2c(=O)[nH]c(N)nc21 [Valacyclovir hydrochloride] | 22.4 | 0.09 |  | 
50 | CC(C)[C@H](N)C(=O)OCC(CO)OCn1cnc2c(=O)nc(N)[nH]c21 (stereo partly drawn) [Valganciclovir hydrochloride] | 189 | 0.33 |  | 
51 | Nc1ncnc2c1ncn2[C@@H]1O[C@H](CO)[C@@H](O)[C@@H]1O [Vidarabine] | 51.4 | -2.58 |  | 
